This is an account of results in PubChem BioAssay (NCI).

Some test systems named below: UACC-257 melanoma; HS 578T breast; HT29 colon; MALME-3M melanoma; DU-145 prostate; A549 NSCLC; A498 renal; SK-MEL-2 melanoma; HCT-15 colon; HOP-62 NSCLC.
Holding throughout (test): inhibition of tumour cell growth, NCI panel, 48 h

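1) Cells in 96-well plates. 2) Compound, 48 h, 5 concentrations. 3) Linear interpolation between surrounding doses. 4) Unreached endpoint = highest concentration. GI50 is the concentration that inhibits growth by half. At the TGI there is no net growth.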

Consider `O=C(c1ccc2ccccc2c1)c1nc2cc(F)ccc2[n+]([O-])c1C(F)(F)F`, for which the GI50 was 17.4 µM with UACC-257 melanoma; 21.9 µM in the assay on HS 578T breast; 16.3 µM in the assay with HT29 colon; 17.3 µM with MALME-3M melanoma; 20.9 µM in the assay on DU-145 prostate; 20.6 µM in the assay with A549 NSCLC. Moreover, the GI50 with A498 renal is 43.7 µM; in the assay on SK-MEL-2 melanoma, 18.7 µM; in the assay on HCT-15 colon it was 13 µM; in the assay with HOP-62 NSCLC, 34.4 µM. For the same molecule, the TGI in the assay with UACC-257 melanoma is 35.3 µM; in the assay on HS 578T breast it was 56.9 µM; in the assay on HT29 colon it was 35.2 µM; in the assay on MALME-3M melanoma it was 32.9 µM; with DU-145 prostate, 45.8 µM; in the assay on A549 NSCLC it was 53.7 µM. Moreover, the TGI in the assay with A498 renal is more than 100 µM; in the assay with SK-MEL-2 melanoma, 35.8 µM; in the assay on HCT-15 colon, 27.8 µM; in the assay on HOP-62 NSCLC, more than 100 µM.
As to `C=CC(C)(C)n1cc(C2=C(O)C(=O)C(c3cn(C(C)(C)C=C)c4ccccc34)=C(O)C2=O)c2ccccc21`, the TGI in the assay on UACC-257 melanoma is 9.73 µM; in the assay on HS 578T breast, 5.11 µM; in the assay on HT29 colon, 16.2 µM; with MALME-3M melanoma, 11.1 µM; in the assay on DU-145 prostate it was 18.9 µM; in the assay with A549 NSCLC, 14.6 µM. Further, the TGI with A498 renal stood at 34.5 µM; in the assay on SK-MEL-2 melanoma, 4.22 µM; in the assay with HCT-15 colon it was 5.01 µM; in the assay on HOP-62 NSCLC, 8.43 µM.
Take `COc1ccc2c(c1)C(=O)/C(=C/c1cccc(OCC(=O)Nc3nc(C)c(C)s3)c1)O2`: the GI50 with UACC-257 melanoma is 12.8 µM; in the assay with HS 578T breast it was 2.94 µM; in the assay with HT29 colon, 0.0302 µM; in the assay on MALME-3M melanoma, 0.322 µM; with DU-145 prostate it was 0.121 µM; with A549 NSCLC it was 0.19 µM. Besides, the GI50 was 1.75 µM in the assay with A498 renal, 0.0199 µM in the assay with SK-MEL-2 melanoma, 1.34 µM in the assay with HCT-15 colon and 0.0107 µM with HOP-62 NSCLC. Besides, the TGI in the assay on UACC-257 melanoma worked out at 26.3 µM; with HT29 colon, 0.111 µM; in the assay on MALME-3M melanoma, 1.03 µM; in the assay on DU-145 prostate, 0.67 µM; with A549 NSCLC, 2.41 µM; with A498 renal, 10.7 µM. For the same molecule, the results for the TGI in the assay on SK-MEL-2 melanoma, in the assay on HCT-15 colon and in the assay on HOP-62 NSCLC were 0.047 µM, 2.98 µM and 0.0238 µM, respectively.
Turning to `Nc1c(C(=O)c2cccc(C#CCN3CCCCC3)c2)cnn1-c1ccc(F)cc1`, the GI50 in the assay on UACC-257 melanoma is more than 24.1 µM; with HS 578T breast, more than 25 µM; in the assay on HT29 colon, more than 17.7 µM; with MALME-3M melanoma, more than 25 µM; in the assay on DU-145 prostate, more than 25 µM; in the assay on A549 NSCLC, more than 25 µM. In addition, the GI50 was more than 25 µM in the assay on A498 renal, more than 25 µM in the assay with SK-MEL-2 melanoma, more than 22.5 µM in the assay on HCT-15 colon and more than 25 µM with HOP-62 NSCLC. The TGI with UACC-257 melanoma, in the assay on HS 578T breast, in the assay with HT29 colon, with MALME-3M melanoma, with DU-145 prostate and in the assay with A549 NSCLC was more than 25 µM throughout. Also, the TGI in the assay with A498 renal, in the assay with SK-MEL-2 melanoma, in the assay with HCT-15 colon and with HOP-62 NSCLC was more than 25 µM in each case.
Consider `C/C(=C(/c1ccccc1)c1ccc(OCC(O)CNCCN2CCOCC2)cc1)c1ccccc1` (centres undefined), for which the GI50 is 2.02 µM in the assay with UACC-257 melanoma; 1.77 µM with HS 578T breast; 2.03 µM in the assay on HT29 colon; 1.62 µM in the assay with MALME-3M melanoma; 4.37 µM in the assay on DU-145 prostate; 3.99 µM in the assay with A549 NSCLC. Also, the GI50 was 1.52 µM with A498 renal, 2.5 µM in the assay on SK-MEL-2 melanoma, 2.19 µM in the assay with HCT-15 colon and 2.29 µM in the assay on HOP-62 NSCLC. For the same molecule, the TGI turned out to be 4.07 µM in the assay on UACC-257 melanoma; 4.1 µM in the assay on HS 578T breast; 4.86 µM with HT29 colon; 3.04 µM in the assay with MALME-3M melanoma; 15.7 µM in the assay with DU-145 prostate; 15.6 µM in the assay with A549 NSCLC. In addition, the TGI in the assay on A498 renal was 10.1 µM; in the assay on SK-MEL-2 melanoma, 6.24 µM; in the assay on HCT-15 colon, 5.4 µM; in the assay on HOP-62 NSCLC, 5.69 µM.
As for `CCCc1nc(Cl)nc(Cl)c1Cl`, the TGI is 2 µM in the assay with UACC-257 melanoma; 8.46 µM with HS 578T breast; 1.56 µM with HT29 colon; 2.46 µM with MALME-3M melanoma; 9.93 µM in the assay with DU-145 prostate; 6.59 µM with A549 NSCLC. The TGI in the assay with A498 renal was found to be 7.53 µM; in the assay with SK-MEL-2 melanoma it was 2.07 µM; with HCT-15 colon it was 3.15 µM; in the assay with HOP-62 NSCLC, 2.44 µM.
In the case of `CCN1[C@@H](C(=O)NC23CCC(C(=O)O)(CC2)CC3)[C@H](c2cccc(Cl)c2F)[C@]2(C(=O)Nc3cc(Cl)ccc32)C12CCCCC2`, the GI50 with UACC-257 melanoma is 0.228 µM; with HS 578T breast, 2.05 µM; in the assay with HT29 colon it was 3.06 µM; in the assay on MALME-3M melanoma, 0.0655 µM; with DU-145 prostate it was 5.47 µM; in the assay with A549 NSCLC, 0.177 µM. The GI50 was 0.281 µM in the assay on A498 renal, 2.02 µM in the assay with SK-MEL-2 melanoma, 2.57 µM with HCT-15 colon and 3.19 µM in the assay on HOP-62 NSCLC. Also, the TGI came to 1.86 µM in the assay with UACC-257 melanoma; 10.1 µM in the assay with HS 578T breast; 14.8 µM in the assay on HT29 colon; 1.18 µM in the assay on MALME-3M melanoma; 18.5 µM in the assay with DU-145 prostate; 7.03 µM in the assay on A549 NSCLC. The TGI amounted to 3.37 µM in the assay with A498 renal, 5.18 µM in the assay on SK-MEL-2 melanoma, 12.5 µM in the assay on HCT-15 colon and 13.6 µM in the assay on HOP-62 NSCLC.
Regarding `O=C(CC1(O)C(=O)Nc2ccc(F)cc21)c1ccc(C(=O)NCC2CCC3(CC2)OOC2(CCCCC2)OO3)cc1` (centres undefined), the GI50 in the assay with UACC-257 melanoma is 12.7 µM; in the assay on HS 578T breast, 11.4 µM; in the assay with HT29 colon, 11.7 µM; in the assay on MALME-3M melanoma, 2.21 µM; in the assay on DU-145 prostate, 3.49 µM; in the assay with A549 NSCLC, 2.49 µM. Moreover, the GI50 was 13.3 µM with A498 renal, 5.95 µM in the assay with SK-MEL-2 melanoma, 11.4 µM in the assay with HCT-15 colon and 3.64 µM with HOP-62 NSCLC. Besides, the TGI in the assay on UACC-257 melanoma turned out to be 29.9 µM; with HS 578T breast, 47.4 µM; in the assay with HT29 colon, 28 µM; in the assay on MALME-3M melanoma it was 5.13 µM; with DU-145 prostate it was 12.2 µM; with A549 NSCLC, 5.81 µM. Also, the TGI in the assay on A498 renal was 29.4 µM; with SK-MEL-2 melanoma, 20.7 µM; in the assay with HCT-15 colon it was 27.9 µM; in the assay with HOP-62 NSCLC it was 12.3 µM.
